# Where two headings read alike, the source gives them in different places.
# What was measured:
# [1] = Andersen Cascade Impactor (ACI) experiment; assay type: physicochemical
# [2] = apparent pH 6.5, 90% ethanol
# [3] = aqueous system, 20° C.; cited from earlier work
# adult = conditions: cited from earlier work
# [4] = cited from earlier work
smiles,measurement,setting,value
"CN1CCCC1c1cccnc1 (stereo not shown) [nicotine, 3-(1-methyl-2-pyrrolidinyl)-pyridine]",behaviour of nicotine in the aerosol droplets,"[1]; formulation at apparent pH 4.0, nicotine in salt form",remains in the liquid droplets
same,behaviour of nicotine in the aerosol droplets,[1]; formulation at apparent pH 6.0,escapes from the liquid droplets as a vapor
same,share of nicotine in its free base form,[1]; formulation at apparent pH 6.0,approximately 15%
same,share of nicotine in its free base form,[2],50%
same,pKa,"physchem; apparent pKa of nicotine, 90% ethanol, titration curve with sulphuric acid",6.5
same,pKa,"physchem; apparent pKa, ethanol-based system, 20° C.",~6.5
same,pKa for the acid dissociation constant of the mono protonated form of nicotine,[3],approximately 8.0
same,amount that may kill an adult,adult,Approximately forty
same,arterial levels exceeding the venous levels,[4]; in vivo,six- to ten-fold
same,time to reach the brain after inhalation,[4]; smoking of a cigarette,ten
